Target: ATP-dependent translocase ABCB1 (Homo sapiens, UniProt P08183)
Test: TP_TRANSPORTER: transepithelial transport (basal to apical) in Caco-2 cells
Assay type: functional, cell-based

Sequence of ATP-dependent translocase ABCB1 (P08183 whole entry): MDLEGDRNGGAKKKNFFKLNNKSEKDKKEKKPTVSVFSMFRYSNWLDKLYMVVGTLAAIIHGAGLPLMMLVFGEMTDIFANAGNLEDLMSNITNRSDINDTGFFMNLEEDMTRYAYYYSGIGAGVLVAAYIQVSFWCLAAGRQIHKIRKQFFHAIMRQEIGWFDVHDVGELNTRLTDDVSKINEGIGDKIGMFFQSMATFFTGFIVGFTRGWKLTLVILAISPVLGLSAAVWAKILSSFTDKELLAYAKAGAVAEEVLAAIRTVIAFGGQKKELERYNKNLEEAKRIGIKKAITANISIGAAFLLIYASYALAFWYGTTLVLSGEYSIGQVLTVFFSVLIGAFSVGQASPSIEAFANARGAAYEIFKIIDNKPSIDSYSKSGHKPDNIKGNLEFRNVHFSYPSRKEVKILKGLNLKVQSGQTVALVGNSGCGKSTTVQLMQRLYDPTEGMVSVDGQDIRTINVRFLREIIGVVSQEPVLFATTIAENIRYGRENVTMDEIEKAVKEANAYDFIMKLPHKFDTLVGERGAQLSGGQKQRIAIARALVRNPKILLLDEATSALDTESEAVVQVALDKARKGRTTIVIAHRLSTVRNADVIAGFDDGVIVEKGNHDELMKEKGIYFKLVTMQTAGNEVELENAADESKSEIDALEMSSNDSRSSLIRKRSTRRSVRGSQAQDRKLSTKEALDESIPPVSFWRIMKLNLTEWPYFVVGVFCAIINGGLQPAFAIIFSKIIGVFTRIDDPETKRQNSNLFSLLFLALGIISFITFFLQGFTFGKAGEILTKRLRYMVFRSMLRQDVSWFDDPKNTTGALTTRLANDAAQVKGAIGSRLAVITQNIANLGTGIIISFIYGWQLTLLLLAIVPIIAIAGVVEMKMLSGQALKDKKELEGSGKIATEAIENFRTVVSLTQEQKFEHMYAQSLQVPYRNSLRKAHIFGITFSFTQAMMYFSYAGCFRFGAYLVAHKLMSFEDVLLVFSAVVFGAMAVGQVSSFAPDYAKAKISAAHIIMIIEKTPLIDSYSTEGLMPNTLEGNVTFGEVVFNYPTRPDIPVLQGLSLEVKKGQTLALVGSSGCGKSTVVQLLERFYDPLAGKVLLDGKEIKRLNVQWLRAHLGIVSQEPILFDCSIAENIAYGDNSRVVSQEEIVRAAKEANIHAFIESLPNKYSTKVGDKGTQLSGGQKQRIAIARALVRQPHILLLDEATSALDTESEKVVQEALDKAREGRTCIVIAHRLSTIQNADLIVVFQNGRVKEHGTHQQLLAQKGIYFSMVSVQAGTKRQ

- Activity: substrate [+]
SMILES: CC(=O)O[C@@]12CO[C@@H]1C[C@H](O)[C@@]1(C)C(=O)[C@H](O)C3=C(C)[C@@H](OC(=O)[C@H](O)[C@@H](NC(=O)OC(C)(C)C)c4ccccc4)C[C@@](O)([C@@H](OC(=O)c4ccccc4)[C@H]21)C3(C)C.O.O.O [DOCETAXEL]

From ChEMBL document CHEMBL2073992, “Polarized transport of docetaxel and vinblastine mediated by P-glycoprotein in human intestinal epithelial cell monolayers” (Biochem Pharmacol, 1994)
